The source made the active and inactive calls.
Assays:
[1] = test system: TE-1; assay: Antiproliferative activity against human TE-1 cells assessed as reduction in cell viability incubated for 48 hrs by MTT assay; assay type: functional, cell-based; conditions: TE-1, 48 h
[2] = test system: SK-N-SH; assay: Antiproliferative activity against human SK-N-SH cells assessed as reduction in cell viability incubated for 48 hrs by MTT assay; assay type: functional, cell-based
[3] = Cytotoxicity against human GES1 cells assessed as reduction in cell viability incubated for 48 hrs by MTT assay; assay type: toxicity, cell-based
[4] = test system: HGC-27; assay: Antiproliferative activity against human HGC-27 cells assessed as reduction in cell viability incubated for 12 to 48 hrs by MTT assay; assay type: functional, cell-based; conditions: dose 15-30 nM, time 12-48 hrs, DDE = dose-dependent effect
[5] = biological target: Tubulin (Sus scrofa) (UniProt P02554+P02550); assay: Inhibition of porcine brain tubulin polymerization assessed as reduction in tubulin polymerization level by measuring relative fluorescence intensity at 3 umol/l by fluorescence based assay; assay type: tissue-based; conditions: dose 3.0 µmol/L
[6] = biological target: T1, Tubulin (Homo sapiens) (UniProt P68371+Q9H4B7+P0DPH7+P68366+Q13509+Q71U36+P04350+Q3ZCM7+P07437+P68363+Q9BQE3+Q6PEY2+Q13885+Q9BVA1+Q9BUF5); assay: Disruption of microtubule network in human MGC-803 cells assessed as irregular form of filamentous microtubule structures at 5 to 15 nM measured after 48 hrs by DAPI staining based fluorescence microscopic analysis; assay type: cell-based; conditions: dose 5-15 nM
[7] = biological target: T1, Tubulin (Homo sapiens); assay: Disruption of microtubule network in human MGC-803 cells assessed as cytoskeleton disruption at 5 to 15 nM measured after 48 hrs by DAPI staining based fluorescence microscopic analysis; assay type: cell-based; conditions: dose 5-15 nM
[8] = biological target: Tubulin beta (Homo sapiens) (UniProt P68371+Q9H4B7+Q13509+P04350+Q3ZCM7+P07437+Q13885+Q9BVA1+Q9BUF5+A6NNZ2); assay: Binding affinity to beta-tubulin colchicine binding site in human MGC-803 cells assessed as decrease in beta-tubulin adduct band incubated for 2 hrs by EBI alkylate competition assay; assay type: cell-based; conditions: dose 0.075-0.75 µM, DDE = dose-dependent effect
[9] = test system: HGC-27; assay: Inhibition of ERK signalling pathway in human HGC-27 cells assessed as downregulation of c-Raf phosphorylation at 10 to 30 nM incubated for 48 hrs; assay type: cell-based; conditions: dose 10-30 nM
[10] = test system: MGC-803; assay: Inhibition of ERK signalling pathway in human MGC-803 cells assessed as reduction in downstream substrate p90RSK phosphorylation at 5 to 15 nM incubated for 48 hrs; assay type: cell-based; conditions: dose 5-15 nM
[11] = test system: HGC-27; assay: Inhibition of p38 signalling pathway in human HGC-27 cells assessed as reduction in p38 phosphorylation at 10 to 30 nM incubated for 48 hrs; assay type: cell-based; conditions: dose 10-30 nM
[12] = test system: HGC-27; assay: Inhibition of p38 signalling pathway in human HGC-27 cells assessed as reduction in downstream substrate MAPKAPK2 phosphorylation at 10 to 30 nM incubated for 48 hrs; assay type: cell-based; conditions: dose 10-30 nM
[13] = biological target: c-Jun N-terminal kinase, JNK (Homo sapiens) (UniProt P45983+P53779+P45984); assay: Inhibition of JNK signalling pathway in human MGC-803 cells assessed as reduction in JNK phosphorylation at 5 to 15 nM incubated for 48 hrs; assay type: cell-based; conditions: dose 5-15 nM
[14] = test system: MGC-803; assay: Downregulation of c-Myc expression in human MGC-803 cells incubated for 48 hrs; assay type: functional, cell-based; conditions: dose 5-15 nM, DDE = dose-dependent effect
[15] = test system: MGC-803; assay: Downregulation of FoxO3a expression in human MGC-803 cells incubated for 48 hrs; assay type: functional, cell-based; conditions: dose 5-15 nM, DDE = dose-dependent effect
[16] = test system: HGC-27; assay: Downregulation of c-Myc expression in human HGC-27 cells incubated for 48 hrs; assay type: functional, cell-based; conditions: dose 10-30 nM, DDE = dose-dependent effect
[17] = test system: HGC-27; assay: Downregulation of phosphorylated ATF-2 expression in human HGC-27 cells incubated for 48 hrs; assay type: functional, cell-based; conditions: dose 10-30 nM, DDE = dose-dependent effect
[18] = test system: HGC-27; assay: Downregulation of phosphorylated Elk-1 expression in human HGC-27 cells incubated for 48 hrs; assay type: functional, cell-based; conditions: dose 10-30 nM, DDE = dose-dependent effect
[19] = test system: MGC-803; assay: Induction of apoptosis in human MGC-803 cells assessed as increase in total apoptotic cells at 15 nM incubated for 48 hrs by annexin V FITC and propidium iodide staining based flow cytometry analysis (reference value: 3.4%); assay type: functional
[20] = test system: HGC-27; assay: Induction of apoptosis in human HGC-27 cells assessed as increase in total apoptotic cells at 30 nM incubated for 48 hrs by annexin V FITC and propidium iodide staining based flow cytometry analysis (reference value: 7.2%); assay type: functional
[21] = Induction of mitochondria mediated intrinsic apoptosis in human MGC-803 cells assessed as early apoptotic cells at 15 nM measured after 48 hrs by flow cytometry analysis (Rvb= 1.6%); assay type: functional
[22] = Induction of mitochondria mediated intrinsic apoptosis in human MGC-803 cells assessed as late apoptotic cells at 15 nM measured after 48 hrs by flow cytometry analysis (Rvb= 98.2%); assay type: functional
[23] = Induction of mitochondria mediated intrinsic apoptosis in human HGC-27 cells assessed as late apoptotic cells at 30 nM measured after 48 hrs by flow cytometry analysis (reference value: 93.6%); assay type: functional
[24] = test system: HGC-27; assay: Induction of apoptosis in human HGC-27 cells assessed as cell rounding at 10 to 30 nM incubated for 48 hrs by bright field imaging analysis; assay type: functional, cell-based; conditions: dose 10-30 nM
[25] = test system: HGC-27; assay: Induction of DNA damage in human HGC-27 cells by comet assay; assay type: functional, cell-based; conditions: dose 10-30 nM, DDE = dose-dependent effect
[26] = test system: MGC-803; assay: Induction of apoptosis in human MGC-803 cells assessed as decrease in XIAP level; assay type: functional, cell-based; conditions: dose 5-15 nM, DDE = dose-dependent effect
[27] = test system: MGC-803; assay: Induction of apoptosis in human MGC-803 cells assessed as increase in cleavage caspase 3 level; assay type: functional, cell-based; conditions: dose 5-15 nM, DDE = dose-dependent effect
[28] = test system: HGC-27; assay: Induction of apoptosis in human HGC-27 cells assessed as increase in cleavage substrate PARP level; assay type: functional, cell-based; conditions: dose 10-30 nM, DDE = dose-dependent effect
[29] = test system: HGC-27; assay: Induction of apoptosis in human HGC-27 cells assessed as upregulation of DR5 level; assay type: functional, cell-based; conditions: dose 10-30 nM, DDE = dose-dependent effect
[30] = test system: HGC-27; assay: Antiproliferative activity against human HGC-27 cells assessed as inhibition of cell growth at 10 to 30 nM incubated for 60 hrs; assay type: functional, cell-based; conditions: dose 10-30 nM
[31] = test system: MGC-803; assay: Downregulation of Wee1 expression in human MGC-803 cells at 5 to 15 nM incubated for 48 hrs; assay type: functional, cell-based; conditions: dose 5-15 nM
[32] = test system: MGC-803; assay: Downregulation of cyclin B1 expression in human MGC-803 cells at 5 to 15 nM incubated for 48 hrs; assay type: functional, cell-based; conditions: dose 5-15 nM
[33] = test system: MGC-803; assay: Antitumor activity against human MGC-803 cells xenografted BALB/c nude mouse assessed as inhibition of tumor volume at 15 to 30 mg/kg, ip administered once daily for 21 days and measured every 2 days; assay type: functional, organism-based; conditions: dose 15-30 mg/kg, time 21.0 day
[34] = Toxicity in BALB/c nude mouse xenografted with human MGC-803 cells assessed as effect on body weight at 15 to 30 mg/kg, ip administered once daily for 21 days; assay type: organism-based; conditions: in vivo, 504 h, dose 15-30 mg/kg, time 21 day
[35] = Toxicity in BALB/c nude mouse xenografted with human MGC-803 cells assessed as pathological changes in liver at 15 to 30 mg/kg, ip administered once daily for 21 days by Hematoxyin-eosin staining based analysis; assay type: organism-based; conditions: in vivo, 504 h, dose 15-30 mg/kg, time 21 day
[36] = test system: Mus musculus; assay: Upregulation of cleaved caspase -3 expression in tumor tissue of BALB/c nude mouse xenografted with human MGC-803 cells at 15 to 30 mg/kg, ip administered once daily for 21 days by Western blotting analysis; assay type: functional, organism-based; conditions: dose 15-30 mg/kg, time 21.0 day

Sequence of Tubulin (Sus scrofa) (P02550 whole entry, looked up): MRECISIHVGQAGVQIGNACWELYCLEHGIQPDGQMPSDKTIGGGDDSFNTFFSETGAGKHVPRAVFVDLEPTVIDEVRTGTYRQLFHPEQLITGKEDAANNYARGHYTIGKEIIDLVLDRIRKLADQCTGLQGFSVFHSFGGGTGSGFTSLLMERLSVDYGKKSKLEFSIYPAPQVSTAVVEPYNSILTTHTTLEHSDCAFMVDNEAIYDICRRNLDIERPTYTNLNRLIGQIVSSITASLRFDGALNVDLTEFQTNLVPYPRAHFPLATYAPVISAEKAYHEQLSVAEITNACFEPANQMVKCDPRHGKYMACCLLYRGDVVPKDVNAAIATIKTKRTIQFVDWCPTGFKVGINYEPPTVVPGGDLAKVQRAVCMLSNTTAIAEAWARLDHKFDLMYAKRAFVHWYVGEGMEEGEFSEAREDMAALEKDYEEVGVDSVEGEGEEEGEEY
Sequence of Tubulin (Sus scrofa) (P02554 whole entry, looked up): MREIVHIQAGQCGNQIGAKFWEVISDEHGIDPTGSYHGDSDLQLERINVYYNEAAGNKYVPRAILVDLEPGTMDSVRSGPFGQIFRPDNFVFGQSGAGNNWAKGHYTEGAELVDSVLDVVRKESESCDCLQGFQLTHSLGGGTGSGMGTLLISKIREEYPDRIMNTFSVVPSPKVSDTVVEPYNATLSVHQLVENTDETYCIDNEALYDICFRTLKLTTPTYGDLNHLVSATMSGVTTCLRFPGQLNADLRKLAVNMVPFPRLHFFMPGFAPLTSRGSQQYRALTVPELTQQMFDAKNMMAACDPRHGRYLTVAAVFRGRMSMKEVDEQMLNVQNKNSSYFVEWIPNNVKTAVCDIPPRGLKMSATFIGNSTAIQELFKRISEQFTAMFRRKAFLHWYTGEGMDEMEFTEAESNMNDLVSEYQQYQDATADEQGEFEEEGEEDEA

CN(c1ccc2c(ccn2C)c1)c1cc(=O)oc2ccccc12
75.2%: Activity [22]
Non-Toxic: Activity [34] | Activity [35]
40.2%: Activity [19]
74.4%: Activity [23]
47.3%: Activity [20]
3170 nM: IC50 at 48 h [3]
59.6 nM: IC50 [2]
active: Activity [4] Dde | inhibition [5] | Activity [6] | Activity [7] | Activity [8] Dde | inhibition [9] | inhibition [10] | inhibition [11] | inhibition [12] | inhibition [13] | Activity [14] Dde | Activity [15] Dde | Activity [16] Dde | Activity [17] Dde | Activity [18] Dde | Activity [24] | Activity [25] Dde | Activity [26] Dde | Activity [27] Dde | Activity [28] Dde | Activity [29] Dde | inhibition [30] | Activity [31] | Activity [32] | Activity [33] | Activity [36]
489 nM: IC50 [1]
23.6%: Activity [21]

— ChEMBL document CHEMBL5137024, “Discovery of novel coumarin-indole derivatives as tubulin polymerization inhibitors with potent anti-gastric cancer activities” (Eur J Med Chem, 2022)
